According to patent EP4273147A1, “SUBSTITUTED SPIROLACTAMS, SALTS THEREOF AND THEIR USE AS HERBICIDALLY ACTIVE SUBSTANCES” (Bayer Aktiengesellschaft, priority 2022, dated 2023):

Legend:
[1] = test system: ECHCG; experiment: Herbicidal pre-emergence action (Table A2); assay type: in vivo, Echinochloa crus-galli; conditions: application rate 320 g/ha; visual grading after ca. 3 weeks
How it was run: (§1)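 Two-species sowings per pot, mono- plus dicotyledonous weeds; soil type sandy loam, seed covered after sowing.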

[2] = test system: LOLRI; experiment: Herbicidal pre-emergence action (Table A3); assay type: in vivo, Lolium rigidum; conditions: application rate 320 g/ha; visual grading after ca. 3 weeks
How it was run: as §1

[3] = test system: MATIN; experiment: Herbicidal pre-emergence action (Table A4); assay type: in vivo, Matricaria inodora; conditions: application rate 1280 g/ha; visual grading after ca. 3 weeks
How it was run: as §1

[4] = test system: SETVI; experiment: Herbicidal pre-emergence action (Table A5); assay type: in vivo, Setaria viridis; conditions: visual grading after ca. 3 weeks
How it was run: as §1

[5] = test system: POAAN; experiment: Herbicidal pre-emergence action (Table A7); assay type: in vivo, Poa annua; conditions: application rate 1280 g/ha; visual grading after ca. 3 weeks
How it was run: as §1

[6] = test system: ECHCG; experiment: Herbicidal post-emergence action (Table B3); assay type: in vivo, Echinochloa crus-galli; conditions: application rate 1280 g/ha; rated visually after about 3 weeks
How it was run: (§2)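 Percent herbicidal activity scored visually versus untreated controls, with 100% meaning dead plants. Scoring took place ~3 weeks after post-emergence treatment of one-leaf-stage weeds grown in sandy loam pots in a greenhouse.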

[7] = test system: POAAN; experiment: Herbicidal post-emergence action (Table B7); assay type: in vivo, Poa annua; conditions: application rate 1280 g/ha
How it was run: as §2

[8] = test system: ABUTH; experiment: Herbicidal pre-emergence action, section C (Table C1); assay type: in vivo, Abutilon theophrasti; conditions: application rate 320 g/ha; visual grading after ca. 3 weeks
[9] = test system: ECHCG; experiment: Herbicidal pre-emergence action, section C (Table C6); assay type: in vivo, Echinochloa crus-galli; conditions: application rate 320 g/ha; visual grading after ca. 3 weeks
[10] = test system: SETVI; experiment: Herbicidal pre-emergence action, section C (Table C10); assay type: in vivo, Setaria viridis; conditions: visual grading after ca. 3 weeks
[11] = test system: ZEAMX; experiment: Pre-emergence effects on crop plants (Table D1); assay type: in vivo, Zea mays; conditions: crop plant; application rate 80 g/ha; visual grading after ca. 3 weeks
[12] = test system: TRZAS; experiment: Pre-emergence effects on crop plants (Table D2); assay type: in vivo, Triticum aestivum; conditions: crop plant, visual grading after ca. 3 weeks
Text: (§4) Seeds of mono- and dicotyledonous weed plants and crop plants were sown, in plastic or organic planting pots, in sandy loam and covered with soil. The compounds according to the invention, formulated in the form of wettable powders (WP) or as emulsifiable concentrates (EC), were applied to the surface of the covering soil as aqueous suspension or emulsion, with the addition of 0.5% of an additive, at an application rate of 600 1 of water/ha (converted).
(§5) Following treatment, the pots were placed in a greenhouse and kept under optimum growth conditions for the test plants.

[13] = test system: GLXMA; experiment: Pre-emergence effects on crop plants (Table D4); assay type: in vivo, Glycine max; conditions: crop plant; application rate 320 g/ha; visual grading after ca. 3 weeks
Text: as §4, §5

[14] = test system: ECHCG; experiment: Herbicidal post-emergence action, section E (Table E5); assay type: in vivo, Echinochloa crus-galli; conditions: application rate 320 g/ha; assessed visually after ca. 3 weeks
Text: (§3) 2 to 3 weeks after sowing, the test plants were sprayed in the single-leaf stage.

[15] = test system: ZEAMX; experiment: Post-emergence effects on crop plants (Table F1); assay type: in vivo, Zea mays; conditions: application rate 320 g/ha, crop plant ZEAMX
Text: as §3

[16] = test system: TRZAS; experiment: Post-emergence effects on crop plants (Table F2); assay type: in vivo, Triticum aestivum; conditions: application rate 320 g/ha, crop plant TRZAS
Text: as §3

[17] = test system: ORYZA; experiment: Post-emergence effects on crop plants (Table F3); assay type: in vivo, Oryza sativa; conditions: application rate 320 g/ha, crop plant ORYZA
Text: as §3

[18] = test system: ORYZA; experiment: Pre-emergence effects on crop plants (Table D3); conditions: crop plant; application rate 80 g/ha; visual grading after ca. 3 weeks
[19] = test system: ALOMY; experiment: Herbicidal pre-emergence action, section C (Table C2); assay type: in vivo, Alopecurus myosuroides; conditions: application rate 320 g/ha; visual grading after ca. 3 weeks
[20] = test system: DIGSA; experiment: Herbicidal pre-emergence action, section C (Table C5); assay type: in vivo, Digitaria sanguinalis; conditions: application rate 320 g/ha; visual grading after ca. 3 weeks
[21] = test system: POLCO; experiment: Herbicidal pre-emergence action, section C (Table C9); assay type: in vivo, Polygonum convolvulus; conditions: application rate 320 g/ha; visual grading after ca. 3 weeks
[22] = test system: VERPE; experiment: Herbicidal pre-emergence action, section C (Table C11); assay type: in vivo, Veronica persica; conditions: application rate 320 g/ha; visual grading after ca. 3 weeks
[23] = test system: VIOTR; experiment: Herbicidal pre-emergence action, section C (Table C12); assay type: in vivo, Viola tricolor; conditions: application rate 80 g/ha; visual grading after ca. 3 weeks
[24] = test system: VIOTR; experiment: Herbicidal post-emergence action, section E (Table E10); assay type: in vivo, Viola tricolor; conditions: application rate 320 g/ha; assessed visually after ca. 3 weeks
Text: as §3

[25] = test system: BRSNW; experiment: Post-emergence effects on crop plants (Table F5); assay type: in vivo, Brassica napus; conditions: application rate 320 g/ha, crop plant BRSNW
Text: as §3

[26] = test system: STEME; experiment: Herbicidal pre-emergence action (Table A6); assay type: in vivo, Stellaria media; conditions: application rate 1280 g/ha; visual grading after ca. 3 weeks
How it was run: as §1

[27] = test system: AMARE; experiment: Herbicidal pre-emergence action (Table A8); assay type: in vivo, Amaranthus retroflexus; conditions: application rate 1280 g/ha; visual grading after ca. 3 weeks vs untreated controls (100% = plants have died off, 0% = as control plants)
Text: Seeds of mono- and dicotyledonous weed plants were sown in plastic pots (double sowings with one species of mono- and one species of dicotyledonous weed plants per pot), in sandy loam, and covered with soil.

[28] = test system: VERPE; experiment: Herbicidal pre-emergence action (Table A11); assay type: in vivo, Veronica persica; conditions: application rate 1280 g/ha; visual grading after ca. 3 weeks
How it was run: as §1

[29] = test system: BRSNW; experiment: Pre-emergence effects on crop plants (Table D5); assay type: in vivo, Brassica napus; conditions: crop plant; application rate 320 g/ha; visual grading after ca. 3 weeks
Text: as §4, §5

[30] = test system: GLXMA; experiment: Post-emergence effects on crop plants (Table F4); assay type: in vivo, Glycine max; conditions: application rate 80 g/ha, crop plant GLXMA
Text: as §3

Row | Compound | pre-emergence activity against ECHCG [1] [%] | pre-emergence activity against POAAN [5] [%] | pre-emergence activity against ECHCG [9] [%] | pre-emergence activity against ZEAMX [11] [%] | pre-emergence activity against GLXMA [13] [%] | post-emergence activity against ECHCG [14] [%] | post-emergence activity against ZEAMX [15] [%] | post-emergence activity against TRZAS [16] [%] | post-emergence activity against ORYZA [17] [%] | pre-emergence activity against DIGSA [20] [%] | pre-emergence activity against SETVI ([10]; application rate 320 g/ha) [%] | post-emergence activity against VIOTR [24] [%] | post-emergence activity against BRSNW [25] [%] | further results
1 | O=C1N(Cc2ccccc2Br)CCCC12CCCN(Cc1c(F)cccc1F)C2=O (racemic) [I-048] | 100 | 90 | 100 | 0 | 0 | 80 | 20 | 20 | 0 |  |  |  |  | pre-emergence activity against LOLRI [2]: 100%; pre-emergence activity against MATIN [3]: 90%; pre-emergence activity against SETVI ([4]; application rate 320 g/ha): 100%; post-emergence activity against ECHCG [6]: 90%; post-emergence activity against POAAN [7]: 90%; pre-emergence activity against ABUTH [8]: 90%; pre-emergence activity against SETVI ([10]; application rate 80 g/ha): 100%; pre-emergence activity against TRZAS ([12]; application rate 80 g/ha): 0%; pre-emergence activity against ORYZA [18]: 0%
2 | O=C1N(Cc2cc(F)c(F)cc2F)CCCC12CCCN(Cc1cc(F)c(F)cc1F)C2=O (single isomer, unassigned; (+)) [I-215, (+)-2,8-bis(2,4,5-trifluorophenylmethyl)-2,8-diazaspiro[5.5]undecane-1,7-dione] |  |  | 100 |  |  | 90 | 0 | 0 |  | 100 | 100 | 80 | 0 | pre-emergence activity against ALOMY [19]: 100%; pre-emergence activity against POLCO [21]: 80%; pre-emergence activity against VERPE [22]: 80%; pre-emergence activity against VIOTR [23]: 90%
3 | CC(c1ccccc1F)N1CCCC2(CCCN(C(C)c3ccccc3F)C2=O)C1=O (stereo not drawn) [I-060] | 90 | 100 |  | 0 | 10 |  | 10 | 0 | 0 | 100 | 100 | 90 | 0 | pre-emergence activity against SETVI ([4]; application rate 1280 g/ha): 100%; pre-emergence activity against STEME [26]: 90%; pre-emergence activity against AMARE [27]: 90%; pre-emergence activity against VERPE [28]: 90%; pre-emergence activity against TRZAS ([12]; application rate 320 g/ha): 10%; pre-emergence activity against BRSNW [29]: 10%; post-emergence activity against GLXMA [30]: 0%
